Source: PubChem BioAssay AID248 (DTP/NCI, 2004)
Where “and” joins values, the source holds several entries; their conditions need not be identical. Equal entries are not always repeated. Toxic doses and inconclusive results are not listed. Rule as the data show it: active = T/C of 150% or more; inactive = T/C below 125%.

Test system: L1210 leukemia ip in BDF1 mice, survival T/C
Assay: NCI In Vivo Anticancer Drug Screen. Data for tumor model L1210 Leukemia (intraperitoneal) in B6D2F1 (BDF1) mice
Conditions: endpoint: mean survival time, higher = longer survival
Method in brief: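 Transplanted-tumor mice were given test agent; controls received vehicle only. Survival readings from the two groups were divided (treated over control).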

[1] = dose: 100.0 mg/kg/injection, schedule: Q04DX003 (ip), vehicle: saline
[2] = dose: 200.0 mg/kg/injection, schedule: Q04DX003 (ip), vehicle: saline
[3] = dose: 100.0 mg/kg/injection, schedule: Q01DX009 (ip), vehicle: saline
[4] = dose: 200.0 mg/kg/injection, schedule: Q01DX009 (ip), vehicle: saline
[5] = dose: 400.0 mg/kg/injection, schedule: Q01DX009 (ip), vehicle: saline
[6] = dose: 100.0 mg/kg/injection, schedule: Q01DX001 (ip), vehicle: saline
[7] = dose: 100.0 mg/kg/injection, schedule: Q04DX003 (ip), vehicle: Klucel (hydroxypropylcellulose) (HPC)
[8] = dose: 200.0 mg/kg/injection, schedule: Q01DX001 (ip), vehicle: saline
[9] = dose: 400.0 mg/kg/injection, schedule: Q01DX001 (ip), vehicle: saline
[10] = dose: 400.0 mg/kg/injection, schedule: Q04DX003 (ip), vehicle: Klucel (hydroxypropylcellulose) (HPC)
[11] = dose: 200.0 mg/kg/injection, schedule: Q04DX003 (ip), vehicle: Klucel (hydroxypropylcellulose) (HPC)
[12] = dose: 50.0 mg/kg/injection, schedule: Q01DX009 (ip), vehicle: Klucel (hydroxypropylcellulose) (HPC)
[13] = dose: 100.0 mg/kg/injection, schedule: Q01DX009 (ip), vehicle: Klucel (hydroxypropylcellulose) (HPC)
[14] = dose: 200.0 mg/kg/injection, schedule: Q01DX009 (ip), vehicle: Klucel (hydroxypropylcellulose) (HPC)

Measured: T/C

CC1C(C)(C)P(=O)(OCCOP2(=O)C(C)(C)C(C)C2(C)C)C1(C)C (stereo not drawn)
inactive: [1] 100 % of control | [2] 94 % of control

COC(=O)c1ccccc1NS(=O)(=O)c1ccc(Cl)cc1
inactive: dose: 100.0 mg/kg/injection, schedule: Q04DX002 (ip), vehicle: Klucel (hydroxypropylcellulose) (HPC) 94 % of control | dose: 400.0 mg/kg/injection, schedule: Q04DX002 (ip), vehicle: Klucel (hydroxypropylcellulose) (HPC) 110 % of control

C=CCNc1ccc([N+](=O)[O-])cc1[N+](=O)[O-]
inactive: dose: 100.0 mg/kg/injection, schedule: Q01DX001 (ip), vehicle: steriod suspending solution 91 % of control | dose: 200.0 mg/kg/injection, schedule: Q01DX001 (ip), vehicle: steriod suspending solution 98 % of control

Nc1cccc(COc2ccccc2)c1
inactive: [1] 90 % of control | [2] 92 % of control

CN(C)C(=O)CCl
inactive: [3] 96 % of control | [4] 98 % of control | [5] 104 % of control

COC1c2c(nc3ccccc3c2C(N)=O)-c2ccccc2C1(C)C (stereo not drawn)
inactive: [1] 89 % of control | [2] 103 % of control | dose: 400.0 mg/kg/injection, schedule: Q04DX003 (ip), vehicle: saline 94 % of control

COc1ccc(C(O)CNC(=O)c2ccccc2)cc1 (stereo not drawn)
inactive: dose: 25.0 mg/kg/injection, schedule: Q04DX003 (ip), vehicle: Klucel (hydroxypropylcellulose) (HPC) 102 % of control | dose: 50.0 mg/kg/injection, schedule: Q04DX003 (ip), vehicle: Klucel (hydroxypropylcellulose) (HPC) 97 % of control | [6] 96 % of control | [7] 87 % of control | [8] 104 % of control | [9] 98 % of control | [10] 109 % of control

CN1CCN(C(=O)c2ccc(C(=O)N3CCN(C)CC3)cc2)CC1
inactive: dose: 15.0 mg/kg/injection, schedule: Q01DX Z (ip), vehicle: saline 94 % of control | dose: 30.0 mg/kg/injection, schedule: Q01DX Z (ip), vehicle: saline 94 % of control | dose: 60.0 mg/kg/injection, schedule: Q01DX Z (ip), vehicle: saline 108 % of control | dose: 120.0 mg/kg/injection, schedule: Q01DX Z (ip), vehicle: saline 102 % of control | dose: 125.0 mg/kg/injection, schedule: Q01DX Z (ip), vehicle: carboxymethylcellulose (CMC) 96 % of control | dose: 250.0 mg/kg/injection, schedule: Q01DX Z (ip), vehicle: carboxymethylcellulose (CMC) 102 % of control | dose: 500.0 mg/kg/injection, schedule: Q01DX Z (ip), vehicle: carboxymethylcellulose (CMC) 90 % of control

CC(=O)OCCn1c([N+](=O)[O-])cnc1/C=[N+](/[O-])CCOC(C)=O
inactive: dose: 100.0 mg/kg/injection, schedule: Q04DX002 (ip), vehicle: saline 103 % of control | dose: 200.0 mg/kg/injection, schedule: Q04DX002 (ip), vehicle: saline 92 % of control | dose: 400.0 mg/kg/injection, schedule: Q04DX002 (ip), vehicle: saline 100 % of control

CC(=O)Nc1cc(C(C)=O)ccc1O
inactive: [7] 106 % of control | [11] 98 % of control | [10] 103 % of control

CCC(c1ccccc1)c1nc2ccccc2c2ccccc12 (stereo not drawn)
inactive: [12] 97 % of control | [13] 97 % of control | [14] 94 % of control

O=C(O)/C(=C\c1ccccc1)c1ccc([N+](=O)[O-])cc1
inactive: dose: 100.0 mg/kg/injection, schedule: Q04DX003 (ip), vehicle: saline with Tween-80 103 % of control | dose: 200.0 mg/kg/injection, schedule: Q04DX003 (ip), vehicle: saline with Tween-80 92 % of control | dose: 400.0 mg/kg/injection, schedule: Q04DX003 (ip), vehicle: saline with Tween-80 92 % of control

CS(=O)NOCCCCONS(C)=O (stereo not drawn)
inactive: dose: 100.0 mg/kg/injection, schedule: Q04DX002 (ip), vehicle: saline with Tween-80 96 % of control and 89 % of control | dose: 200.0 mg/kg/injection, schedule: Q04DX002 (ip), vehicle: saline with Tween-80 96 % of control and 100 % of control | dose: 400.0 mg/kg/injection, schedule: Q04DX002 (ip), vehicle: saline with Tween-80 86 % of control

CC(C)OC(=O)Nc1ccc(Cl)cc1Cl
inactive: [7] 97 % of control | [11] 108 % of control | [10] 108 % of control

CCC/C=C(/C=O)CC
inactive: dose: 100.0 mg/kg/injection, schedule: Q01DX001 (ip), vehicle: saline with Tween-80 100 % of control | dose: 200.0 mg/kg/injection, schedule: Q01DX001 (ip), vehicle: saline with Tween-80 96 % of control | dose: 400.0 mg/kg/injection, schedule: Q01DX001 (ip), vehicle: saline with Tween-80 96 % of control

Cc1cc(C)c(F)[c]([Hg][Br])c1N
inactive: dose: 12.5 mg/kg/injection, schedule: Q01DX009 (ip), vehicle: Klucel (hydroxypropylcellulose) (HPC) 96 % of control | dose: 37.5 mg/kg/injection, schedule: Q01DX001 (ip), vehicle: Klucel (hydroxypropylcellulose) (HPC) 94 % of control | [12] 96 % of control | [13] 89 % of control

COc1ccc(C(=O)CCN2CCC(O)(c3ccccc3)CC2)cc1
inactive: dose: 12.5 mg/kg/injection, schedule: Q04DX003 (ip), vehicle: saline with Tween-80 100 % of control | dose: 25.0 mg/kg/injection, schedule: Q04DX003 (ip), vehicle: saline with Tween-80 92 % of control | dose: 50.0 mg/kg/injection, schedule: Q04DX003 (ip), vehicle: saline with Tween-80 96 % of control

O=C1C=CC(=Nc2ccc(O)c3ncccc23)c2cccnc21
inactive: dose: 100.0 mg/kg/injection, schedule: Q01DX001 (ip), vehicle: other 104 % of control and 114 % of control | dose: 200.0 mg/kg/injection, schedule: Q01DX001 (ip), vehicle: other 106 % of control and 108 % of control | dose: 400.0 mg/kg/injection, schedule: Q01DX001 (ip), vehicle: other 102 % of control

Cc1n(CCBr)c([N+](=O)[O-])c[n+]1C1N=C(c2ccccc2Cl)c2cc(Cl)ccc2NC1=O (stereo not drawn)
inactive: [12] 86 % of control | [14] 89 % of control

CC(=O)OC1COC(SSC2OCC(OC(C)=O)C(OC(C)=O)C2OC(C)=O)C(OC(C)=O)C1OC(C)=O (stereo not drawn)
inactive: [6] 89 % of control | [8] 89 % of control | [9] 101 % of control

CSCCC(NC(C)=O)C(=O)NNC(C)C (stereo not drawn)
inactive: dose: 25.0 mg/kg/injection, schedule: Q01DX009 (ip), vehicle: saline 101 % of control | dose: 50.0 mg/kg/injection, schedule: Q01DX009 (ip), vehicle: saline 92 % of control | [3] 92 % of control | [4] 95 % of control | [5] 93 % of control

CCOC(=O)c1oc(C)nc1C
inactive: dose: 100.0 mg/kg/injection, schedule: Q01DX001 (ip), vehicle: Klucel (hydroxypropylcellulose) (HPC) 122 % of control | dose: 200.0 mg/kg/injection, schedule: Q01DX001 (ip), vehicle: Klucel (hydroxypropylcellulose) (HPC) 97 % of control | dose: 400.0 mg/kg/injection, schedule: Q01DX001 (ip), vehicle: Klucel (hydroxypropylcellulose) (HPC) 101 % of control

CCCCCCCCCCCCCCCCCC(O)CCCCCCCCCCCCCCCCC
inactive: dose: 100.0 mg/kg/injection, schedule: Q04DX003 (ip), vehicle: acetone 94 % of control | dose: 200.0 mg/kg/injection, schedule: Q04DX003 (ip), vehicle: acetone 96 % of control | dose: 400.0 mg/kg/injection, schedule: Q04DX003 (ip), vehicle: acetone 86 % of control

CCCCS(=O)C1(CCC)OC1(c1ccccc1)c1ccccc1 (stereo not drawn)
inactive: dose: 100.0 mg/kg/injection, schedule: Q03DX002 (ip), vehicle: other 121 % of control | dose: 200.0 mg/kg/injection, schedule: Q03DX002 (ip), vehicle: other 102 % of control | dose: 400.0 mg/kg/injection, schedule: Q03DX002 (ip), vehicle: other 96 % of control
